According to US8026218B2, “Bifunctional analgesic compounds for opioid receptor agonists and neurokinin-1 receptor antagonists” (The University of Arizona, priority 2006, dated 2011):
Where two headings read alike, the source gives them in different places. Peptide text beside a SMILES is read from it.

Key:
rat NK1 (rNK1) receptor = biological target: T1, rat NK1 (rNK1) receptor (Rattus norvegicus, UniProt P14600); assay: Radioligand competition binding, [3H]substance P, rNK1/CHO membranes
T1 construct: expressed in transfected cells; host or cells: CHO (rNK-1/CHO cell line from Dr. James Krause)
T1 sequence (P14600 whole entry): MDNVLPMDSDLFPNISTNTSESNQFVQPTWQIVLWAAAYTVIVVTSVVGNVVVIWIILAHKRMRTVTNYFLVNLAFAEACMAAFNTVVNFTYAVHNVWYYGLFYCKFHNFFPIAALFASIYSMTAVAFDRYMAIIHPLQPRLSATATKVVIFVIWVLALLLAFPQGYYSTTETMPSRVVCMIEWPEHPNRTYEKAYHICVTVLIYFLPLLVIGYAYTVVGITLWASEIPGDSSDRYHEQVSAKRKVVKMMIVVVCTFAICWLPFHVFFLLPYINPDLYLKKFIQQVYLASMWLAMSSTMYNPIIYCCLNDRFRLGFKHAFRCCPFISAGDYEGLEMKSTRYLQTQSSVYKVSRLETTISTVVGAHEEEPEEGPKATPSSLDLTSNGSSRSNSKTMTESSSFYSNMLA

[1] = biological target: T2, Substance P receptors (guinea pig NK1) (Cavia porcellus, UniProt P30547); assay: Guinea pig isolated ileum (GPI) assay with substance P stimulation in presence of 1 μM naloxone; conditions: for Kb: Substance P antagonist, GPI, Ke, in the presence of 1 μM naloxone; for activation at 1 µM: read-out: Substance P GPI agonist (A50), contraction relative to initial muscle contraction with KCl
T2 construct: from tissue; host or cells: guinea pig (Hartley) ileum LMMP, 1 μM naloxone present
T2 sequence (P30547 whole entry): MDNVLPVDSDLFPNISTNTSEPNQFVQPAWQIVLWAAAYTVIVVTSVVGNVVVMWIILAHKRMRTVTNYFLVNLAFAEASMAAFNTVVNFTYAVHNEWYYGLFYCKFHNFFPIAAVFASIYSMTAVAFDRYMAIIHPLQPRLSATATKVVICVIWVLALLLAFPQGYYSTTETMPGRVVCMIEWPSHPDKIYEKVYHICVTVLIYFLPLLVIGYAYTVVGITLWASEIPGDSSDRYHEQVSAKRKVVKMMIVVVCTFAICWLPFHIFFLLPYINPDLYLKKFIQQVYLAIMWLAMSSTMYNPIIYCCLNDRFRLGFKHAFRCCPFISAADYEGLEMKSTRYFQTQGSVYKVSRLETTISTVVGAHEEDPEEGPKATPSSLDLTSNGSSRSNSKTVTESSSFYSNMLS
Description: Testing stopped at 1 mM concentrations of the test compound.
Analysis of GPI and MVD assays. For opioid data analysis, percentage inhibition was calculated using the average tissue contraction height for 1 min preceding the addition of the agonist divided by the contraction height 3 min after exposure to the dose of agonist. […] IC50 and Emax estimates were determined by computerized nonlinear least-squares analysis (the pharmacological statistics package FlashCalc: Dr. Michael Ossipov, University of Arizona, Tucson, Ariz.). […] A50 values represent the mean of not less than 4 tissues. A50 and Emax estimates were determined by computerized nonlinear least-squares analysis (FlashCalc).

[2] = biological target: T3, human NK1 receptor (hNK1) (Homo sapiens, UniProt P25103); assay: Radioligand competition binding, [3H]-Substance P, hNK1
T3 construct: expressed in transfected cells
T3 sequence (P25103 whole entry): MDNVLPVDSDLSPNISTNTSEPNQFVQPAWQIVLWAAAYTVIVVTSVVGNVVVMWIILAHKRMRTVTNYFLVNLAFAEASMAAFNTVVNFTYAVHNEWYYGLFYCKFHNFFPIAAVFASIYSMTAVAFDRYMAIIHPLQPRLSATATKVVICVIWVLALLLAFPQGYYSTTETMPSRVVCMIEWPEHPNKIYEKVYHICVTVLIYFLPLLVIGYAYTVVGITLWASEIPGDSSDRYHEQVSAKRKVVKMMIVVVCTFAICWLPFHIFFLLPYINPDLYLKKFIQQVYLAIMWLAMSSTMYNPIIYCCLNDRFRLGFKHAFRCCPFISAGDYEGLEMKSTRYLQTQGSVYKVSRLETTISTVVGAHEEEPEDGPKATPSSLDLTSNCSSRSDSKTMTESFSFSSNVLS

[3] = biological target: T4, human δ opioid receptors (hDOR) (Homo sapiens, UniProt P41143); assay: Radioligand competition binding, [3H]DPDPE, hDOR membranes; conditions: for LogIC50, hDOR, [3H]DPDPE: membranes from transfected HN9.10 cells
T4 construct: expressed in transfected cells; host or cells: HN9.10 neuroblastoma cell line, pCDNA3, neomycin-selected clones
T4 sequence (P41143 whole entry): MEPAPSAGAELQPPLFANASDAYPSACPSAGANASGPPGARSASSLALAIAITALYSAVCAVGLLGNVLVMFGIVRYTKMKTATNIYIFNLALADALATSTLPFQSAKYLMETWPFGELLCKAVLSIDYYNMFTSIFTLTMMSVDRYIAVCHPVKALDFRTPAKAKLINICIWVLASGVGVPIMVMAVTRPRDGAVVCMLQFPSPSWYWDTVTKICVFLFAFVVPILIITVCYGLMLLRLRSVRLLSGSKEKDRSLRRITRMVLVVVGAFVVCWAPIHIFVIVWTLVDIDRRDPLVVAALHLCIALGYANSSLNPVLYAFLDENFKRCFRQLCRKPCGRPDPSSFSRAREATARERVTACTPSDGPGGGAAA

[4] = biological target: T5, rat μ opioid receptors (rMOR) (Rattus norvegicus, UniProt P33535); assay: biochemical; type: biochemical; conditions: Table 39; read-out: GTP binding rMOR Emax
T5 construct: expressed in transfected cells; host or cells: HN9.10 neuroblastoma cell line, pCDNA3, neomycin-selected clones
T5 sequence (P33535 whole entry): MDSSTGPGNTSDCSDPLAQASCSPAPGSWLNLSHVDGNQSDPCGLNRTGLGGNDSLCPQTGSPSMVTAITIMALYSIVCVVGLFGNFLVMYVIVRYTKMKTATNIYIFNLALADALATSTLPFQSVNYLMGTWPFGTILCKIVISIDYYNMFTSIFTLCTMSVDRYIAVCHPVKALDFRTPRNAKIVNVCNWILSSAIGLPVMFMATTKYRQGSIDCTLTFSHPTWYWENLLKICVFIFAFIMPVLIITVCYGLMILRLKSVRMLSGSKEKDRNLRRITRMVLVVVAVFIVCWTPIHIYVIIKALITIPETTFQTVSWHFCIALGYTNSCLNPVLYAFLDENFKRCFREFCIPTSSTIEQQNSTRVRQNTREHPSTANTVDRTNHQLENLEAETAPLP

[5] = biological target: T4, human δ opioid receptors (hDOR); assay: [35S]GTP-γ-S binding assay, hDOR; type: biochemical
δ opioid receptors (MVD) = biological target: T6, δ opioid receptors (MVD) (Mus musculus, UniProt P32300); assay: Mouse isolated vas deferens (MVD) assay, opioid agonist
T6 construct: from tissue; host or cells: mouse (ICR) isolated vas deferens
T6 sequence (P32300 whole entry): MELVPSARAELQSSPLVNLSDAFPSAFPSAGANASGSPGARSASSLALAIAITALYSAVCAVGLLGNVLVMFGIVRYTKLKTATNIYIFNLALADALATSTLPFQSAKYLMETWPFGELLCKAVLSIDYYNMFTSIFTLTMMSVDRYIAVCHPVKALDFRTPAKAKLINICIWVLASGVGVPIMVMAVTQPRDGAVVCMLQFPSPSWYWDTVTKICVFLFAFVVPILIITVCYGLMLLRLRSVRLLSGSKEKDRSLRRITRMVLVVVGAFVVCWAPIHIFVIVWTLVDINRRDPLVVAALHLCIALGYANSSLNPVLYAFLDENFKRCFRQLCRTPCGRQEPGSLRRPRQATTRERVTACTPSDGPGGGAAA

μ opioid receptors (GPI) = assay: Guinea pig isolated ileum (GPI) assay, opioid agonist; parameters: GPI/LMMP Opioid(m) Agonist, % inh.: unit of the concentration uncertain;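 also: inhibition of electrically evoked contractions (0.1 Hz, 0.4 msec, supramaximal voltage) in organ baths at 37 °C, contraction height 3 min after each cumulative dose versus the 1 min before dosing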
[6] = Table 39, read-out: GTP binding hDOR Emax
[7] = LogIC50, rNK1, Substance P radioligand, membranes from transfected CHO cells
[8] = Table 39, read-out: MVD opioid(delta) agonist (IC50; nM)
[9] = Table 27, read-out: GTP binding hDOR EC50
[10] = Table 27, read-out: GTP binding hDOR Emax (%)
[11] = Table 39, read-out: GTP binding hDOR EC50
[12] = net total bound/basal binding × 100, read-out: Emax, hDOR, [35S]GTP-γ-S binding
[13] = read-out: EC50, hDOR, [35S]GTP-γ-S binding
[14] = Table 28, read-out: GPI/LMMP Opioid(m) Agonist (IC50; nM)
[15] = Table 39, read-out: GPI/LMMP opioid(mu) agonist (IC50; nM)
[16] = electrically stimulated isolated tissue, read-out: GPI (μ), IC50
[17] = IC50, rNK1, Substance P radioligand, membranes from transfected CHO cells
[18] = Table 28, read-out: MVD Opioid (d) Agonist (IC50; nM)
[19] = electrically stimulated isolated tissue, read-out: MVD (δ), IC50

With `CC(C)C[C@H](NC(=O)[C@@H]1CCCN1C(=O)[C@H](Cc1ccccc1)NC(=O)CNC(=O)[C@@H](C)NC(=O)[C@@H](N)Cc1ccc(O)cc1)C(=O)N[C@@H](Cc1c[nH]c2ccccc12)C(=O)OCc1cc(C(F)(F)F)cc(C(F)(F)F)c1` [TY001, H-Tyr-DAla-Gly-Phe-Pro-Leu-Trp-O-3,5-Bzl(CF3)2] the Ki (rat NK1 (rNK1) receptor; Affinity rNK1 (Ki; nM), Table 39) was 1.56 nM, the IC50 (rat NK1 (rNK1) receptor; LogIC50, rNK1, [3H]Substance P, Table 6, logarithm of IC50 (negative), CHO cell membranes) was 5.01 nM and the Ki (rat NK1 (rNK1) receptor; read-out: Ki, rNK1) was 1.6 nM. For the same compound, the Kb [1] was 3.6 ± 1.1 nM, the IC50 [2] was 0.00501 nM and the Ki [2] was 0.0023 nM. For the same compound, the “species difference between affinities at rNK1 and hNK1” value ([2]; Ki rNK1 vs Ki hNK1) was 700 fold.
In the case of `CC(C)C[C@H](NC(=O)[C@@H]1CCCN1C(=O)[C@H](Cc1ccccc1)NC(=O)[C@H](Cc1ccccc1)NC(=O)CNC(=O)[C@@H](C)NC(=O)[C@@H](N)Cc1ccc(O)cc1)C(=O)N[C@@H](Cc1c[nH]c2ccccc12)C(=O)OCc1ccccc1` [TY014] (HELM PEPTIDE1{Y.[dA].G.F.F.P.L.W.[c1ccc(CO[*:1])cc1]}$$$$V2.0; N-terminus assumed), the Ki [3] is reported as 11.5 nM, the Emax [4] is reported as 72.3% and the Emax [5, 6] is reported as 137%.
With `CCCC[C@H](NC(=O)[C@H](Cc1ccccc1)NC(=O)CNC(=O)[C@@H](C)NC(=O)[C@@H](N)Cc1ccc(O)cc1)C(=O)N1CCC[C@H]1C(=O)N[C@@H](CC(C)C)C(=O)N[C@@H](Cc1c[nH]c2ccccc12)C(=O)OCc1cc(C(F)(F)F)cc(C(F)(F)F)c1` [TY018, H-Tyr-D-Ala-Gly-Phe-Nle-Pro-Leu-Trp-O-3,5-Bzl(CF3)2] the “LogIC50, hDOR, [3H]DPDPE” value [3] was −8.42 ± 0.15, the Ki (rat NK1 (rNK1) receptor; Ki, rNK1, text) was 14.8 nM and the IC50 (rat NK1 (rNK1) receptor; [7]) was 13.5 nM. For the same compound, the IC50 (δ opioid receptors (MVD)) was 16.8 ± 2.4 nM, the IC50 (δ opioid receptors (MVD); [8]) was 16.8 nM and the “LogEC50, hDOR, [35S]GTP-γ-S binding” value [5] was −8.40 ± 0.11. For the same compound, the EC50 [5, 9] was 4 nM, the Emax [5, 10] was 131% and the EC50 [5, 11] was 4 nM. For the same compound, the Emax [5, 6] was 131%, the Emax [5, 12] was 129% and the EC50 [5, 13] was 4 nM. The Kb [1] was 7.9 ± 1.9 nM, the activation at 1 µM [1] was 0% and the IC50 (μ opioid receptors (GPI); [14]) was 372 nM. It also gave an IC50 (μ opioid receptors (GPI); [15]) of 372 nM and an IC50 (μ opioid receptors (GPI); [16]) of 372 ± 65 nM.
With `CCCC[C@@H](C(=O)N1CCC[C@H]1C(=O)N[C@@H](CC(C)C)C(=O)N[C@@H](Cc1c[nH]c2ccccc12)C(=O)OCc1cc(C(F)(F)F)cc(C(F)(F)F)c1)N(C)C(=O)[C@H](Cc1ccccc1)NC(=O)CNC(=O)[C@@H](C)NC(=O)[C@@H](N)Cc1ccc(O)cc1` [TY019, H-Tyr-D-Ala-Gly-Phe-N-Me-Nle-Pro-Leu-Trp-O-3,5-Bzl(CF3)2] the “LogIC50, hDOR, [3H]DPDPE” value [3] was −6.79 ± 0.13, the IC50 (rat NK1 (rNK1) receptor; [17]) was 135 nM and the IC50 (rat NK1 (rNK1) receptor; [7]) was 112 nM. It also gave an IC50 (δ opioid receptors (MVD); [18]) of 188 nM, an IC50 (δ opioid receptors (MVD); [8]) of 188 nM and an IC50 (δ opioid receptors (MVD); [19]) of 188 ± 21 nM. The “LogEC50, hDOR, [35S]GTP-γ-S binding” value [5] was −6.44 ± 0.27, the EC50 [5, 13] was 364 nM and the Emax ([5]; read-out: Emax, hDOR, [35S]GTP-γ-S binding) was 316%. The EC50 ([5]; read-out: GTP binding hDOR EC50) was 364 nM, the Emax ([5]; read-out: GTP binding hDOR Emax) was 283% and the Emax ([5]; read-out: GTP binding hDOR Emax (%)) was 283%. The IC50 [1] was 4.6 nM, the Kb [1] was 4.6 ± 1.2 nM and the “GPI/LMMP SP Agonist, % inh.” value ([1]; Table 28) was 2% inh. at 1 mM. The “GPI/LMMP SP Agonist, % @ 1 uM” value ([1]; Table 39, @ 1 uM) was 1.6%@ 1 uM, the activation at 1 µM [1] was 2% and the “GPI/LMMP Opioid(m) Agonist, % inh.” value (μ opioid receptors (GPI); Table 28, at 1 (unit uncertain)) was 12% inh. at 1 mM. The “GPI/LMMP opioid(mu) agonist, %” value (μ opioid receptors (GPI); Table 39, concentration not given) was 11.90% and the “GPI (μ), effect at single concentration” value (μ opioid receptors (GPI); at 1 μM) was 12% at 1 μM^b.
`CC(C)C[C@H](NC(=O)[C@@H]1CCCN1C(=O)[C@H](CC[S+](C)[O-])NC(=O)[C@H](Cc1ccccc1)NC(=O)CNC(=O)[C@@H](C)NC(=O)[C@@H](N)Cc1ccc(O)cc1)C(=O)N[C@@H](Cc1c[nH]c2ccccc12)C(=O)OCc1cc(C(F)(F)F)cc(C(F)(F)F)c1` (stereo partly drawn) [TY023, H-Tyr-D-Ala-Gly-Phe-Met(O)-Pro-Leu-Trp-O-3,5-Bzl(CF3)2] was tested, and the “LogIC50, hDOR, [3H]DPDPE” value [3] was −7.92 ± 0.04, the Ki ([3]; read-out: Ki, hDOR, [3H]DPDPE) was 4.8 nM and the IC50 (rat NK1 (rNK1) receptor; [17]) was 54.5 nM. It also gave a Ki (rat NK1 (rNK1) receptor; Ki, rNK1, text) of 54.5 nM, a Ki (rat NK1 (rNK1) receptor; Table 39, read-out: Affinity rNK1 (Ki; nM)) of 0.2 nM and an IC50 (δ opioid receptors (MVD); [18]) of 33 nM. The IC50 (δ opioid receptors (MVD); [8]) was 33 nM, the IC50 (δ opioid receptors (MVD); [19]) was 33 nM and the “LogEC50, hDOR, [35S]GTP-γ-S binding” value [5] was −8.73 ± 0.20. For the same compound, the EC50 [5, 9] was 1.8 nM, the Emax [5, 10] was 52.8% and the EC50 [5, 11] was 1.8 nM. For the same compound, the Emax [5, 6] was 52.8%, the Emax [5, 12] was 53% and the EC50 [5, 13] was 1.8 nM. It also gave a Kb [1] of 7.8 ± 4 nM, an IC50 (μ opioid receptors (GPI); [14]) of 154 nM and an IC50 (μ opioid receptors (GPI); [15]) of 154 nM. For the same compound, the IC50 (μ opioid receptors (GPI); [16]) was 154 nM.
`CSCC[C@H](NC(=O)[C@H](Cc1ccccc1)NC(=O)CNC(=O)[C@@H](C)NC(=O)[C@@H](N)Cc1ccc(O)cc1)C(=O)N1CCC[C@H]1C(=O)N[C@@H](CC(C)C)C(=O)N[C@@H](Cc1c[nH]c2ccccc12)C(=O)OCc1ccccc1` [TY029] showed a Ki [3] of 1.3 nM, an IC50 (δ opioid receptors (MVD)) of 7.62 nM and an Emax [4] of 133%. For the same compound, the EC50 [5, 11] was 3.4 nM, the Emax [5, 6] was 98% and the IC50 (μ opioid receptors (GPI); [15]) was 22.2 nM.
Work on `CSCC[C@H](NC(=O)[C@H](Cc1ccccc1)NC(=O)CNC(=O)[C@@H](C)NC(=O)[C@@H](N)Cc1ccc(O)cc1)C(=O)N1CCC[C@H]1C(=O)N[C@@H](CC(C)C)C(=O)N[C@@H](Cc1c[nH]c2ccccc12)C(=O)O` [TY043] yielded a Ki [3] of 1.1 nM, an IC50 (δ opioid receptors (MVD)) of 8.18 nM and an Emax [4] of 36%. The Emax [5, 6] was 62%, the “GPI/LMMP SP antagonist (Ke; nM)” value ([1]; Table 39) was “no shift” and the IC50 (μ opioid receptors (GPI); [15]) was 272 nM.
